Legend:
aortic allografts = test: Aortic allograft chronic rejection: intimal thickening / luminal reduction; type: in vivo, mouse; conditions: 0.03 μg/kg p.o. five times per week day 0 to day 30; grafts analysed 60 days after transplantation; vehicle >60%
Description: Mice: BALB/c and C57BL/6 (B6) male mice, weighing 22-24 g, were purchased from Charles River Laboratories (Calco, Italy), and kept under specific pathogen-free conditions. B6 (H-2^b) mice were used as donors and BALB/c (H-2^d) as recipients of aortic allografts.
Aorta transplantation: The entire procedure was performed according to Koulack et al. Development of a mouse aortic transplant model of chronic rejection Microsurgery 1995; 16: 110-3, with the modification described by Hong et al. Improved surgical technique for the establishment of a murine model of aortic transplantation. Microsurgery 1998; 18: 368-71. […]
Determination of luminal reduction: Luminal reduction was assessed in 5 μm-thick frozen transverse aortic sections stained with hematoxylin and eosin obtained 60 days post transplantation. To quantify morphological changes in the graft, we used a Leica DC camera (Leica IM 1000 image manager) to acquire the image, and the Leica Qwin software to calculate the luminal reduction percentage. […]
Statistical analysis: Numerical data are expressed as mean ±SD. Data on percent luminal reduction were analysed by a non parametric Students's t-test.
The effect of Compound A in preventing chronic rejection was evaluated using the aortic graft model in the mouse. […] Aortic grafts were analyzed 60 days after transplantation.

CD4+ T cells = test: Flow cytometric analysis of surface molecules on CD4+ cells from treated NOD mice; type: in vivo, mouse
Description: Single-cell suspensions of pancreas-infiltrating, spleen or lymph node cells were incubated with anti-CD4 mAb-coated Microbeads (Miltenyi Biotec) and applied onto Mini-MACS columns (Miltenyi Biotec). Stainings were performed in the presence of 100 μg/ml mouse IgG using the following mAbs, all from PharMingen: CyChrome-labeled Streptavidin, FITC-labeled anti-CD4 (L3T4), PE-labeled anti-CD45RB (16A), PE-labeled anti-CD62L (MEL-14), PE-labeled anti-CD38 (rat IgG2a), FITC-labeled anti-CD69 (H1.2F3), and biotinylated anti-CD25 (7D4). Cells were analyzed with a FACScan flow cytometer equipped with CellQuest software (Becton Dickinson, Mountain View, Calif.).
Therefore, we analyzed the frequency of CD4^+ CD25^+ cells in 1,25-dihydroxy-16,23Z-diene-26,27-hexafluoro-19-nor vitamin D3-treated NOD mice. No difference was found in the percentage of splenic CD4^+ cells expressing CD25, CD38, CD69, CD62L and CD45RB in 20 week-old Compound A or vehicle-treated and untreated 8 week-old NOD mice (FIG. 6A).
FIG. 6. (page 6/9) Compound A treatment enhances the frequency of CD4^+ CD25^+ cells. Positively selected CD4^+ T cells were stained with mAbs specific for the indicated surface molecules and analyzed by flow cytometry. Acquisition was performed on CD4^+ cells. Bars represent the percent of spleen and lymph node CD4^+ T cells expressing the indicated surface molecules from untreated 8 week-old (□) or 20 week-old NOD mice treated 5×/week from 8 to 16 weeks of age with vehicle ( ? ) or with 0.03 μg/Kg Compound A (▪). Data are presented as mean ±SE of three separate experiments. The P values were calculated by Mann-Whitney U test (* indicates P<0.05 vs. 8 week-old NOD mice).

IFN-γ = test: LPS-induced IFN-γ production in vivo (serum ELISA); design: species or system mouse; conditions: 0.03 μg/Kg per os 72, 48, 24, 1 h before LPS; serum 3 h post LPS
Description: (§1) Lymphokine production was induced in 8 week-old female NOD mice by i.p. injection of 400 μg/mouse Salmonella abortus equi LPS (Sigma). Compound A was administered 72, 48, 24, and 1 h prior to LPS. Blood samples were collected 3 h post LPS injection and serum cytokines measured by ELISA.
(§2) Cytokines were quantified by two-sites ELISA. IFN-γ was determined using paired mAb from PharMingen (San Diego, Calif.). For capture, the mAb was AN-18.17.24. Samples were titrated and incubated overnight at 4° C. To detect bound IFN-γ plates were then incubated with biotinylated XMG1.2 mAb. […] The plates were washed again and incubated with the developing substrate p-nitrophenylphosphate disodium (Sigma) in diethanolamine buffer (pH 9.6; 100 μl/well). The reaction was stopped by adding 50 μl/well NaOH 3N, and absorbance was read at 405 nm. ELISA for IL-12p75 was performed as described (Gately, M. K., et al., Current Protocols Immunol. 1995, 3, 15:6.16.11-16.16.15). Cytokines were quantified from two to three titration points using standard curves generated by purified recombinant mouse cytokines and results expressed as cytokine concentration in ng or pg/ml. Detection limits were 15 pg/ml for both cytokines. […]
(§3) FIG. 3. […] IFN-γ, IL-12p75 and serum calcium levels were quantified 3 h post LPS injection. […] The P values were calculated by Mann-Whitney U test (* indicates P<0.05 vs. vehicle-treated NOD mice).

IL-12p75 = test: LPS-induced IL-12 production in vivo (serum ELISA); design: species or system mouse
Description: as §1, §2, §3

[1] = Serum calcium levels after Compound A treatment; type: in vivo, mouse; conditions: 0.03 μg/Kg per os daily for 4 days before LPS injection, NOD mice
Description: In this experiment the capacity of Compound A to inhibit LPS-induced IL-12 and IFN-γ production in vivo is tested. Mice were pre-treated with vehicle or with 0.03 μg/Kg Compound A administered per os daily for 4 days before LPS injection.
FIG. 3. […] Compound A (0.03 μg/Kg) was administered orally in miglyol to NOD mice 72, 48, 24 and 1 h before LPS injection. IFN-γ, IL-12p75 and serum calcium levels were quantified 3 h post LPS injection. Bars represent the mean ±SE of 10 mice/group. The P values were calculated by Mann-Whitney U test (* indicates P<0.05 vs. vehicle-treated NOD mice).

C[C@H](C/C=C\C(O)(C(F)(F)F)C(F)(F)F)C1=CC[C@H]2/C(=C/C=C3C[C@@H](O)C[C@H](O)C3)CCC[C@]12C [Compound A, 1,25-dihydroxy-16,23Z-diene-26,27-hexafluoro-19-nor vitamin D3]
intimal thickening (aortic allografts): < 20%
percentage of splenic CD4+ cells expressing CD25, CD38, CD69, CD62L and CD45RB (CD4+ T cells; 20 week-old mice, vs vehicle-treated and untreated 8 week-old): No difference
percentage of CD45RBhigh (CD4+ T cells; pancreatic lymph node CD4+ cells, 8 week-old 75.9±0.5%, vehicle 74.2±1.6): 65.1±0.3%
percentage of CD4+ CD25+ (CD4+ T cells; pancreatic lymph node cells, 8 week-old 11.6±0.1%, vehicle 13.0±0.1): 20.1±0.1%
percentage of CD4+ CD38+ (CD4+ T cells; pancreatic lymph node cells, 8 week-old 11.8±0.1%, vehicle 10.6±1.0): 25.2±0.2%
percentage of CD45RBlow CD4+ cells (CD4+ T cells; pancreatic lymph node cells, 8 week-old 12.65±0.43%, vehicle 34.8±0.01): 24.1±0.22%
double positive CD25+ CD38+ CD4+ cells (CD4+ T cells; pancreatic lymph node, 8 week-old 8%, vehicle 7%): 17%
LPS-induced IFN-γ production (IFN-γ): inhibited significantly
LPS-induced IL-12p75 production (IL-12p75; 0.03 μg/Kg per os 72, 48, 24, 1 h before LPS, serum 3 h post LPS): inhibited significantly
potency in inhibiting LPS-induced IL-12p75 and IFN-γ production relative to 1,25(OH)2D3 (IL-12p75; higher than 1,25(OH)2D3 (literature comparison)): about 100 fold
hypercalcemia (serum calcium levels) [1]: did not induce hypercalcemia

— US20040214803A1, “Use of vitamin d3 analogue for the treatment of autoimmune diabetes” (priority 2001, published 2004)
